Laboratory results taken from article PMC12041765, “The development of a high-throughput acoustic droplet ejection mass-spectrometry assay and a solid-supported membrane (SSM)-based electrophysiological assay to study the pharmacological inhibition of SLC1-A3, -A2 and -A1 in a drug discovery program” (Frontiers in Pharmacology, 2025).
Like-named read-outs stand apart in the source and are kept apart here.

What was measured:
SLC1A2 (EAAT2) = molecular target: T1, SLC1A2 (EAAT2) (Homo sapiens, UniProt P43004); assay: SSM-based electrophysiology (SURFE2R 96 SE), EAAT2 membrane fragments; assay type: biochemical; settings: glutamic acid up to 500 µM, membrane 4 µg/well, read-out: SURFE^2R Km
T1 construct: host or cells: HEK293-JumpIn, doxycycline-induced

EAAT2 [1] = test system: EAAT2; design: method as in Arriza et al. (1994); settings: radio-labeled uptake, COS7 cells, ref Arriza et al. (1994); cited from earlier work
EAAT2 [2] = test system: EAAT2; design: method as in Arriza et al. (1994); settings: oocytes, Voltage-Clamp, ref Arriza et al. (1994); cited from earlier work
EAAT2 [3] = settings: cited from earlier work
EAAT3 [4] = settings: cited from earlier work
EAAT1 [5] = settings: radio-labeled uptake, COS7 cells, ref Arriza et al. (1994); cited from earlier work
EAAT3 [6] = settings: radio-labeled uptake, COS7 cells, ref Arriza et al. (1994); cited from earlier work
EAAT1 [7] = settings: oocytes, Voltage-Clamp, ref Arriza et al. (1994); cited from earlier work
EAAT3 [8] = settings: oocytes, Voltage-Clamp, ref Arriza et al. (1994); cited from earlier work
EAAT1 [9] = settings: glutamic acid uptake assay, ref Vallejo-Illarramendi et al. (2005); cited from earlier work
EAAT1 [10] = settings: cited from earlier work
[11] = FLIPR membrane potential assay, ref Faure et al. (2006)
[12] = similar methodologies (FLIPR), ref Alaux et al. (2005)

T1 sequence (P43004 whole entry, the tested form may be a part): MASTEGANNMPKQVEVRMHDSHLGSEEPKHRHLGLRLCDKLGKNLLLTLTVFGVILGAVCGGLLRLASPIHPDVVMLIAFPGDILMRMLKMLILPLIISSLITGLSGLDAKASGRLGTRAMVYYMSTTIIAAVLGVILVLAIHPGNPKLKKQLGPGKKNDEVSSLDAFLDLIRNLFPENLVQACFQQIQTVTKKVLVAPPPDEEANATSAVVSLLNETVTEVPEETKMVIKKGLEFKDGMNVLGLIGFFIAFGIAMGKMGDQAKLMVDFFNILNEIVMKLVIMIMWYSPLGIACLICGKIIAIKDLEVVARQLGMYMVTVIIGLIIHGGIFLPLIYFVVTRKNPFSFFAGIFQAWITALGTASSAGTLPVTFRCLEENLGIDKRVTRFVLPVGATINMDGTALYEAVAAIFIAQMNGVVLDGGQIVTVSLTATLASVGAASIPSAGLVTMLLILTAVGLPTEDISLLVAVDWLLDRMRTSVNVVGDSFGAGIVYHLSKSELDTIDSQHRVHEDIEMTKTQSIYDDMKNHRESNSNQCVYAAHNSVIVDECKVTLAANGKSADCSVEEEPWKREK

For `N[C@@H](CCC(=O)O)C(=O)O` [glutamic acid, L-glutamic acid], the Km (SLC1A2 (EAAT2)) is given as 9.5 µM, the Km (EAAT2 [1]) is given as 97 ± 4 µM and the Km (EAAT2 [2]) is given as 18 ± 3 µM. For the same compound, the Km (EAAT2 [3]; [11]) was 21 µM, the Km (EAAT2 [3]; [12]) was 21 µM and the Km (EAAT3 [4]; [11]) was 9.9 µM. The Km (EAAT3 [4]; [12]) was 25 µM, the Km (EAAT1 [5]) was 48 ± 10 µM and the Km (EAAT3 [6]) was 62 ± 8 µM. For the same compound, the Km (EAAT1 [7]) was 20 ± 3 µM, the Km (EAAT3 [8]) was 28 ± 6 µM and the Km (EAAT1 [9]) was 27.5 ± 2.3 µM. The Km (EAAT1 [10]; [11]) was 7.9 µM and the Km (EAAT1 [10]; [12]) was 9.2 µM.
